Data published in article PMC5218480 (PLoS ONE, 2017).

Tested on: MV-4-11 cells
Assay: Gene expression microarray analysis (Affymetrix PrimeView) and GSEA
Format: cell-based, human
Parameters: RFU PODN (11730768_x_at) / Fold change /veh PODN (11730768_x_at) / RFU LINC00158 (11744669_a_at) / Fold change /veh LINC00158 (11744669_a_at) / RFU DUSP10 (11751237_a_at) / Fold change /veh DUSP10 (11751237_a_at) / RFU ID3 (11757404_x_at) / Fold change /veh ID3 (11757404_x_at) / RFU PLEKHG5 (11737974_s_at) / Fold change /veh PLEKHG5 (11737974_s_at) / RFU LRRC4B (11730491_at) / Fold change /veh LRRC4B (11730491_at) / RFU GIMAP4 (11747438_a_at) / Fold change /veh GIMAP4 (11747438_a_at) / RFU KRT8 (11758183_x_at) / Fold change /veh KRT8 (11758183_x_at) / RFU CNN1 (11734310_a_at) / Fold change /veh CNN1 (11734310_a_at) / RFU VPS37D (11726825_at) / Fold change /veh VPS37D (11726825_at) / RFU C10orf10 (11716522_x_at) / Fold change /veh C10orf10 (11716522_x_at) / RFU KIR2DL2 /// KIR2DL4 /// KIR2DL5A /// KIR2DL5B /// KIR2DS1 /// KIR2DS2 /// KIR2DS3 /// KIR2DS4 /// KIR3DL3 /// KIR3DL3 /// KIR3DS1 (11738374_at) / Fold change /veh KIR2DL2 /// KIR2DL4 /// KIR2DL5A /// KIR2DL5B /// KIR2DS1 /// KIR2DS2 /// KIR2DS3 /// KIR2DS4 /// KIR3DL3 /// KIR3DL3 /// KIR3DS1 (11738374_at) / RFU C1QL1 (11718748_at) / Fold change /veh C1QL1 (11718748_at) / RFU TMPRSS4 (11747572_a_at) / Fold change /veh TMPRSS4 (11747572_a_at) / RFU HAMP (11756126_x_at) / Fold change /veh HAMP (11756126_x_at) / RFU RNFT2 (11725882_a_at) / Fold change /veh RNFT2 (11725882_a_at) / RFU NR4A2 (11747474_a_at) / Fold change /veh NR4A2 (11747474_a_at) / RFU ABCC12 (11746883_a_at) / Fold change /veh ABCC12 (11746883_a_at) / RFU TMEM136 (11760407_x_at) / Fold change /veh TMEM136 (11760407_x_at) / RFU CLDN22 /// WWC2 (11732394_at) / Fold change /veh CLDN22 /// WWC2 (11732394_at) / RFU HLA-DPB1 (11760878_x_at) / Fold change /veh HLA-DPB1 (11760878_x_at) / RFU SPINT1 (11716480_a_at) / Fold change /veh SPINT1 (11716480_a_at) / RFU GAP43 (11754022_s_at) / Fold change /veh GAP43 (11754022_s_at) / RFU A4GNT (11735810_at) / Fold change /veh A4GNT (11735810_at) / RFU PRB3 (11715151_x_at) / Fold change /veh PRB3 (11715151_x_at) / RFU TUBB4B (11761932_at) / Fold change /veh TUBB4B (11761932_at) / RFU CAPN14 (11732068_a_at) / Fold change /veh CAPN14 (11732068_a_at) / RFU TMCC2 (11721928_a_at) / Fold change /veh TMCC2 (11721928_a_at) / RFU IRGQ (11745062_a_at) / Fold change /veh IRGQ (11745062_a_at) / RFU FAM174B (11720279_a_at) / Fold change /veh FAM174B (11720279_a_at) / RFU TMPRSS4 (11748680_a_at) / Fold change /veh TMPRSS4 (11748680_a_at) / RFU FAM212B (11763350_a_at) / Fold change /veh FAM212B (11763350_a_at) / RFU PLEKHG5 (11743358_a_at) / Fold change /veh PLEKHG5 (11743358_a_at) / RFU ZSCAN30 (11745921_a_at) / Fold change /veh ZSCAN30 (11745921_a_at) / RFU CMKLR1 (11741424_a_at) / Fold change /veh CMKLR1 (11741424_a_at) / RFU LOC101060620 /// MAPK8IP1 (11723275_at) / Fold change /veh LOC101060620 /// MAPK8IP1 (11723275_at) / RFU SPTSSB (11747773_x_at) / Fold change /veh SPTSSB (11747773_x_at) / RFU PRSS12 (11739890_at) / Fold change /veh PRSS12 (11739890_at) / RFU BIN1 (11741810_x_at) / Fold change /veh BIN1 (11741810_x_at) / RFU WNT11 (11732464_a_at) / Fold change /veh WNT11 (11732464_a_at) / RFU C10orf10 (11716521_a_at) / Fold change /veh C10orf10 (11716521_a_at) / RFU C5orf56 (11738089_at) / Fold change /veh C5orf56 (11738089_at) / RFU CYB561 (11721691_x_at) / Fold change /veh CYB561 (11721691_x_at) / RFU ANKRD19P (11752326_a_at) / Fold change /veh ANKRD19P (11752326_a_at) / RFU OR2T12 /// OR2T33 /// OR2T8 (11738714_s_at) / Fold change /veh OR2T12 /// OR2T33 /// OR2T8 (11738714_s_at) / RFU VCAN (11748164_a_at) / Fold change /veh VCAN (11748164_a_at) / RFU JSRP1 (11732532_at) / Fold change /veh JSRP1 (11732532_at) / RFU KRTAP10-11 (11738290_x_at) / Fold change /veh KRTAP10-11 (11738290_x_at) / RFU MYO3A (11730013_a_at) / Fold change /veh MYO3A (11730013_a_at) / RFU EBF3 (11725865_a_at) / Fold change /veh EBF3 (11725865_a_at) / RFU CAMK2N1 (11719241_x_at) / Fold change /veh CAMK2N1 (11719241_x_at) / RFU C5orf56 (11738088_a_at) / Fold change /veh C5orf56 (11738088_a_at) / RFU OLFML3 (11715873_a_at) / Fold change /veh OLFML3 (11715873_a_at) / RFU LOC100653217 /// NTM (11731650_a_at) / Fold change /veh LOC100653217 /// NTM (11731650_a_at) / RFU MAPK11 (11762145_a_at) / Fold change /veh MAPK11 (11762145_a_at) / RFU FIZ1 (11724087_x_at) / Fold change /veh FIZ1 (11724087_x_at) / RFU OASL (11726364_x_at) / Fold change /veh OASL (11726364_x_at) / RFU SOX15 (11748057_x_at) / Fold change /veh SOX15 (11748057_x_at) / RFU CD79A (11719716_a_at) / Fold change /veh CD79A (11719716_a_at) / RFU HIST1H1D (11736915_at) / Fold change /veh HIST1H1D (11736915_at) / RFU CASKIN2 (11723855_a_at) / Fold change /veh CASKIN2 (11723855_a_at) / RFU LOC730098 (11760151_x_at) / Fold change /veh LOC730098 (11760151_x_at) / RFU OR4N2 (11742367_at) / Fold change /veh OR4N2 (11742367_at) / RFU PRRT2 (11749266_a_at) / Fold change /veh PRRT2 (11749266_a_at) / RFU SNX32 (11753110_a_at) / Fold change /veh SNX32 (11753110_a_at) / RFU CDHR5 (11726645_a_at) / Fold change /veh CDHR5 (11726645_a_at) / RFU RCAN1 (11760418_a_at) / Fold change /veh RCAN1 (11760418_a_at) / RFU FAM167A (11723789_a_at) / Fold change /veh FAM167A (11723789_a_at) / RFU FAM26E (11764081_at) / Fold change /veh FAM26E (11764081_at) / RFU ISYNA1 (11749810_s_at) / Fold change /veh ISYNA1 (11749810_s_at) / RFU ACY1 (11761880_at) / Fold change /veh ACY1 (11761880_at) / RFU 11764098_at / Fold change /veh 11764098_at / RFU SAMD14 (11745864_x_at) / Fold change /veh SAMD14 (11745864_x_at) / RFU NPB (11741838_a_at) / Fold change /veh NPB (11741838_a_at) / RFU TMPRSS6 (11731388_a_at) / Fold change /veh TMPRSS6 (11731388_a_at) / RFU KRTAP10-2 (11738614_at) / Fold change /veh KRTAP10-2 (11738614_at) / RFU ARHGAP8 /// PRR5-ARHGAP8 (11727945_x_at) / Fold change /veh ARHGAP8 /// PRR5-ARHGAP8 (11727945_x_at) / RFU KRTAP5-7 /// NADSYN1 (11734609_at) / Fold change /veh KRTAP5-7 /// NADSYN1 (11734609_at) / RFU RASL12 (11751679_a_at) / Fold change /veh RASL12 (11751679_a_at) / RFU CDKN2B (11736163_a_at) / Fold change /veh CDKN2B (11736163_a_at) / RFU PRF1 (11729649_at) / Fold change /veh PRF1 (11729649_at) / RFU, ZNF638 /// ZNF638-IT1 / Fold change vs veh, ZNF638 /// ZNF638-IT1 / RFU, PANK3 / Fold change vs veh, PANK3 / RFU, SH3YL1 / Fold change vs veh, SH3YL1 / RFU, ZEB2 / Fold change vs veh, ZEB2 / RFU, NRIP1 / Fold change vs veh, NRIP1 / RFU, PTTG1IP / Fold change vs veh, PTTG1IP / RFU, CAPN2 / Fold change vs veh, CAPN2 / RFU, MED14 / Fold change vs veh, MED14 / RFU, SNORA58 / Fold change vs veh, SNORA58 / RFU, C1orf63 / Fold change vs veh, C1orf63 / RFU, LRRFIP1 / Fold change vs veh, LRRFIP1 / RFU, NDUFAF7 / Fold change vs veh, NDUFAF7 / RFU, SLC12A2 / Fold change vs veh, SLC12A2 / RFU, IBTK / Fold change vs veh, IBTK / RFU, ESF1 / Fold change vs veh, ESF1 / Fold change vs veh, TMEM50B / RFU, TAOK1 / Fold change vs veh, TAOK1 / RFU, ACBD3 / Fold change vs veh, ACBD3 / RFU, TMA16 / Fold change vs veh, TMA16 / RFU, RWDD3 / Fold change vs veh, RWDD3 / RFU, BCAT1 / Fold change vs veh, BCAT1 / RFU, EDEM3 / Fold change vs veh, EDEM3 / RFU, TMEM33 / Fold change vs veh, TMEM33 / RFU, WDR75 / Fold change vs veh, WDR75 / RFU, AHCTF1 / Fold change vs veh, AHCTF1 / RFU, TFRC / Fold change vs veh, TFRC / RFU, ZDHHC17 / Fold change vs veh, ZDHHC17 / RFU, NOM1 / Fold change vs veh, NOM1 / RFU, ARL8B / Fold change vs veh, ARL8B / RFU, ZBTB11 / Fold change vs veh, ZBTB11 / RFU, TAMM41 / Fold change vs veh, TAMM41 / RFU, KIAA1704 /// LOC100996395 / Fold change vs veh, KIAA1704 /// LOC100996395 / RFU, ING1 / Fold change vs veh, ING1 / RFU, TRMT61B / Fold change vs veh, TRMT61B / RFU, FUBP3 / Fold change vs veh, FUBP3 / RFU, TP53 / Fold change vs veh, TP53 / RFU, TNKS2 / Fold change vs veh, TNKS2 / RFU, ZFP14 / Fold change vs veh, ZFP14 / RFU, ACTR2 / Fold change vs veh, ACTR2 / RFU, PPP3R1 / Fold change vs veh, PPP3R1 / RFU, PIK3R1 / Fold change vs veh, PIK3R1 / RFU, HNRNPA1 / Fold change vs veh, HNRNPA1 / RFU, RNF170 / Fold change vs veh, RNF170 / RFU, ZNF28 / Fold change vs veh, ZNF28 / RFU, RNGTT / Fold change vs veh, RNGTT / RFU, OGT / Fold change vs veh, OGT / RFU, BRD1 / Fold change vs veh, BRD1 / RFU, MARS / Fold change vs veh, MARS / RFU, ZNF655 / Fold change vs veh, ZNF655 / RFU, FAHD1 / Fold change vs veh, FAHD1 / RFU, BDP1 / Fold change vs veh, BDP1 / RFU, LRRCC1 / Fold change vs veh, LRRCC1 / RFU, ARID1A / Fold change vs veh, ARID1A / RFU, ZNF146 / Fold change vs veh, ZNF146 / RFU, ZNF330 / Fold change vs veh, ZNF330 / RFU, GPN3 / Fold change vs veh, GPN3 / RFU, C9orf123 / Fold change vs veh, C9orf123 / RFU, N4BP2L2 / Fold change vs veh, N4BP2L2 / RFU, ARFIP1 / Fold change vs veh, ARFIP1 / RFU, FAM179B / Fold change vs veh, FAM179B / RFU, BCL10 / Fold change vs veh, BCL10 / RFU, UHRF1BP1L / Fold change vs veh, UHRF1BP1L / RFU, BET1 / Fold change vs veh, BET1 / RFU, CNOT2 / Fold change vs veh, CNOT2 / RFU, ZNF268 / Fold change vs veh, ZNF268 / Fold change vs veh, ZNF507 / RFU, DGCR2 / Fold change vs veh, DGCR2 / RFU, WDSUB1 / Fold change vs veh, WDSUB1 / Fold change vs veh, HSP90B1 /// MIR3652 / RFU, ADSS / Fold change vs veh, ADSS / RFU, GK / Fold change vs veh, GK / RFU, ZNF148 / Fold change vs veh, ZNF148 / RFU, TAF9 / Fold change vs veh, TAF9 / RFU, SLC1A5 / Fold change vs veh, SLC1A5 / RFU, SLMO2 / Fold change vs veh, SLMO2 / RFU, ABCC4 / Fold change vs veh, ABCC4 / RFU, LOC101060439 /// RAP1B / Fold change vs veh, LOC101060439 /// RAP1B / RFU, RFX7 / Fold change vs veh, RFX7 / RFU, GTPBP10 / Fold change vs veh, GTPBP10 / RFU, CNEP1R1 / Fold change vs veh, CNEP1R1 / RFU, BIVM-ERCC5 /// ERCC5 / Fold change vs veh, BIVM-ERCC5 /// ERCC5 / RFU, ILF3 / Fold change vs veh, ILF3 / RFU 11762660_at / Fold change /veh 11762660_at / RFU VCAN (11757783_s_at) / Fold change /veh VCAN (11757783_s_at) / RFU DDX43 (11728927_at) / Fold change /veh DDX43 (11728927_at) / RFU KRT8 (11758188_x_at) / Fold change /veh KRT8 (11758188_x_at) / RFU NKD1 (11759106_at) / Fold change /veh NKD1 (11759106_at) / RFU SRD5A1 (11742802_a_at) / Fold change /veh SRD5A1 (11742802_a_at) / RFU TPSAB1 /// TPSB2 (11721975_s_at) / Fold change /veh TPSAB1 /// TPSB2 (11721975_s_at) / RFU GSTM3 (11746129_a_at) / Fold change /veh GSTM3 (11746129_a_at) / RFU IL23R (11737362_x_at) / Fold change /veh IL23R (11737362_x_at) / RFU TMEM51 (11727254_a_at) / Fold change /veh TMEM51 (11727254_a_at) / RFU PIWIL2 (11732686_x_at) / Fold change /veh PIWIL2 (11732686_x_at) / RFU ORM1 (11744905_x_at) / Fold change /veh ORM1 (11744905_x_at) / RFU CCDC152 (11743942_at) / Fold change /veh CCDC152 (11743942_at) / RFU ECM1 (11717891_a_at) / Fold change /veh ECM1 (11717891_a_at) / RFU IL23R (11748794_a_at) / Fold change /veh IL23R (11748794_a_at) / RFU TNFAIP8L3 (11732012_x_at) / Fold change /veh TNFAIP8L3 (11732012_x_at) / RFU MBOAT4 (11741988_at) / Fold change /veh MBOAT4 (11741988_at) / RFU 11764193_at / Fold change /veh 11764193_at / RFU TMEM53 (11763286_at) / Fold change /veh TMEM53 (11763286_at) / RFU MAGEB2 (11727129_at) / Fold change /veh MAGEB2 (11727129_at) / RFU TMEM200A (11744735_a_at) / Fold change /veh TMEM200A (11744735_a_at) / RFU CCDC152 (11751479_a_at) / Fold change /veh CCDC152 (11751479_a_at) / RFU FAM211A (11726209_a_at) / Fold change /veh FAM211A (11726209_a_at) / RFU RGS16 (11746705_a_at) / Fold change /veh RGS16 (11746705_a_at) / RFU VCAN (11755009_s_at) / Fold change /veh VCAN (11755009_s_at) / RFU RHOB (11743442_s_at) / Fold change /veh RHOB (11743442_s_at) / RFU RGS16 (11720943_a_at) / Fold change /veh RGS16 (11720943_a_at) / RFU RGS16 (11720944_at) / Fold change /veh RGS16 (11720944_at) / RFU, VPS4B / Fold change vs veh, VPS4B / RFU, CREB1 / Fold change vs veh, CREB1 / RFU, DNAJC13 / Fold change vs veh, DNAJC13 / RFU, GNAQ / Fold change vs veh, GNAQ / RFU, CDK5R1 / Fold change vs veh, CDK5R1 / RFU, ZRANB3 / Fold change vs veh, ZRANB3 / RFU, CUL4A / Fold change vs veh, CUL4A / RFU, CCNY / Fold change vs veh, CCNY / RFU, UFL1 / Fold change vs veh, UFL1 / RFU, COG3 / Fold change vs veh, COG3 / RFU, DIAPH2 / Fold change vs veh, DIAPH2 / RFU, SKA2 / Fold change vs veh, SKA2 / RFU, AFF3 / Fold change vs veh, AFF3 / RFU, LMF1 / Fold change vs veh, LMF1 / RFU, IPO11 / Fold change vs veh, IPO11 / RFU, DFFB / Fold change vs veh, DFFB / RFU, FOXP1 / Fold change vs veh, FOXP1 / RFU, CARD8 / Fold change vs veh, CARD8 / RFU, STRN3 / Fold change vs veh, STRN3 / RFU, ADK / Fold change vs veh, ADK / RFU, RASSF2 / Fold change vs veh, RASSF2 / RFU, WIPF1 / Fold change vs veh, WIPF1 / RFU, LARP1B / Fold change vs veh, LARP1B / RFU, RASA1 / Fold change vs veh, RASA1 / RFU, RB1 / Fold change vs veh, RB1 / RFU, PPFIA1 / Fold change vs veh, PPFIA1 / RFU, MAT2A / Fold change vs veh, MAT2A / RFU, CCT5 / Fold change vs veh, CCT5 / RFU, WDR92 / Fold change vs veh, WDR92 / RFU, CUX1 / Fold change vs veh, CUX1 / RFU, TTC7A / Fold change vs veh, TTC7A / RFU, TMEM135 / Fold change vs veh, TMEM135 / RFU, DEPTOR / Fold change vs veh, DEPTOR / RFU, CPM / Fold change vs veh, CPM / RFU, DNAJB6 / Fold change vs veh, DNAJB6 / RFU, CACNA2D3 / Fold change vs veh, CACNA2D3 / RFU, DTX4 / Fold change vs veh, DTX4 / RFU, TFCP2 / Fold change vs veh, TFCP2 / RFU, GMCL1 /// GMCL1P1 / Fold change vs veh, GMCL1 /// GMCL1P1 / RFU, AEBP2 / Fold change vs veh, AEBP2 / RFU, SNHG1 /// SNORD22 /// SNORD25 /// SNORD26 /// SNORD27 /// SNORD28 /// SNORD29 /// SNORD31 / Fold change vs veh, SNHG1 /// SNORD22 /// SNORD25 /// SNORD26 /// SNORD27 /// SNORD28 /// SNORD29 /// SNORD31 / Fold change (Aza/veh), C12orf56 (ProbeSet 11735607_a_at) / Fold change (ACY-1035/veh), C12orf56 (ProbeSet 11735607_a_at) / Fold change (Aza/veh), FGFR1OP (ProbeSet 11751329_s_at) / Fold change (ACY-1035/veh), FGFR1OP (ProbeSet 11751329_s_at) / Fold change (Aza/veh), VPS36 (ProbeSet 11739960_a_at) / Fold change (ACY-1035/veh), VPS36 (ProbeSet 11739960_a_at) / RFU SYPL1 (11715823_x_at) / Fold change /veh SYPL1 (11715823_x_at) / RFU IGFBP7 (11715501_s_at) / Fold change /veh IGFBP7 (11715501_s_at) / RFU REEP3 (11722064_at) / Fold change /veh REEP3 (11722064_at) / RFU IGLL1 (11728026_x_at) / Fold change /veh IGLL1 (11728026_x_at): dose or concentration left out as unconfirmed
Conditions: ProbeSet 11715478_a_at; LIST B

Nc1ncn([C@@H]2O[C@H](CO)[C@@H](O)[C@H]2O)c(=O)n1 [azacitidine]
RFU, TFRC: 131.21 RFU
